Results as given in ChEMBL document CHEMBL5241090, “A comprehensive overview of β-carbolines and its derivatives as anticancer agents” (Eur J Med Chem, 2021).
Converted amounts (≈) assume the structure as drawn. Each block holds one compound with its values, some of them ahead of it.

Experiments:
[1] = molecular target: T1, Kinesin-like protein KIF11 (Homo sapiens, UniProt P52732); experiment: Inhibition of KSP (unknown origin)
T1 sequence (P52732 whole entry): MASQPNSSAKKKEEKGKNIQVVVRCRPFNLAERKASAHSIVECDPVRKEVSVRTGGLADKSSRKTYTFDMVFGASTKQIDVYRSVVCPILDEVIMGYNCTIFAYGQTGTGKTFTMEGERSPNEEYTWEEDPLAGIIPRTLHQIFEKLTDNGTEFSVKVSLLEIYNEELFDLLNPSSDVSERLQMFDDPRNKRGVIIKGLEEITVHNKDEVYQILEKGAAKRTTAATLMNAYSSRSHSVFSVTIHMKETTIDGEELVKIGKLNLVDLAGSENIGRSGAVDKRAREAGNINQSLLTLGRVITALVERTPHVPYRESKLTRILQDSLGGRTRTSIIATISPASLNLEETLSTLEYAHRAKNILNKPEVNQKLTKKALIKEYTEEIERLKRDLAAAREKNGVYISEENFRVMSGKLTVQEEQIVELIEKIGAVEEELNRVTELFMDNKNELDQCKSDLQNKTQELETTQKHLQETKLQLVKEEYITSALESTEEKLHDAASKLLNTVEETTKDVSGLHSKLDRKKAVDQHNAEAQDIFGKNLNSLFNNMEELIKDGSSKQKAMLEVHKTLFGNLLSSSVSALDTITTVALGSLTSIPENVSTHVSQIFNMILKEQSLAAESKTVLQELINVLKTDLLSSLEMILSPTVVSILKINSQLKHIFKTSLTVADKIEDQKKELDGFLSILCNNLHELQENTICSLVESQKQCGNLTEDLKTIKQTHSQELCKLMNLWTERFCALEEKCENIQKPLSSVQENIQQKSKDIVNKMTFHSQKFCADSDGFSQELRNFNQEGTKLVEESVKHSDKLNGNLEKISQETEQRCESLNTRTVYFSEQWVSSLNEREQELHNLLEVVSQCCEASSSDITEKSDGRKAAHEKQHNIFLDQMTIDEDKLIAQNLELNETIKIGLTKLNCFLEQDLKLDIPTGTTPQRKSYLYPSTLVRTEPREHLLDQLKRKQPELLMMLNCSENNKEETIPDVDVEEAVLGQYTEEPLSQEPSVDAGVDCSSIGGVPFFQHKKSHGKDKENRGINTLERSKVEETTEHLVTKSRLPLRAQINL

DNA topoisomerase 1 = molecular target: T2, DNA topoisomerase 1 (Homo sapiens, UniProt P11387); experiment: Inhibition of Topoisomerase 1 (unknown origin)
T2 sequence (P11387 whole entry): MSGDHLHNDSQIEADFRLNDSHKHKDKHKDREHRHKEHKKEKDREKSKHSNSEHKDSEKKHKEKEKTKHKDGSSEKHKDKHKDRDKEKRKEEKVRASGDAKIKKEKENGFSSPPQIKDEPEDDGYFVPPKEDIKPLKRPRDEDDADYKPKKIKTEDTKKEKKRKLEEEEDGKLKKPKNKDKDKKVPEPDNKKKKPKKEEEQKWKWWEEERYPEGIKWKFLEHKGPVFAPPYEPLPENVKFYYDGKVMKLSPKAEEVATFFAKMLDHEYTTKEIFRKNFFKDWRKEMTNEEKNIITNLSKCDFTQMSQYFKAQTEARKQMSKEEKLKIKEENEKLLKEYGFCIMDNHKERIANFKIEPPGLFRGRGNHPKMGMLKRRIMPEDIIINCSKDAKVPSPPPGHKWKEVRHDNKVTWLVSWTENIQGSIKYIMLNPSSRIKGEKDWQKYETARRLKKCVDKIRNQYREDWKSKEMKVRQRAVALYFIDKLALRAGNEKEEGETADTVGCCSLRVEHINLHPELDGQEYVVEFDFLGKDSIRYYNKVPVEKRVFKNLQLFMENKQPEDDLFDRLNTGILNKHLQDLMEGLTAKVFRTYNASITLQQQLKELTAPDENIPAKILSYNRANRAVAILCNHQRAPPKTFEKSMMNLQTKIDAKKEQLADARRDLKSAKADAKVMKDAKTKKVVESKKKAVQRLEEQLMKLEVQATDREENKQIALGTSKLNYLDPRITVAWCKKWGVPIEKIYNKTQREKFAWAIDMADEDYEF

MG-63 = experiment: Cytotoxicity against human MG-63 cells; type: functional, cell-based
A549 [2] = experiment: Cytotoxicity against human A549 cells measured after 48 hrs by MTT assay; type: functional, cell-based; details: A549, 48 h
SGC-7901 = experiment: Cytotoxicity against human SGC-7901 cells measured after 48 hrs by MTT assay; type: functional, cell-based; details: SGC-7901, 48 h
SMMC-7721 [3] = experiment: Cytotoxicity against human SMMC-7721 cells measured after 48 hrs by MTT assay; type: functional, cell-based; details: SMMC-7721, 48 h
HeLa = experiment: Cytotoxicity against human HeLa cells measured after 48 hrs by MTT assay; type: functional, cell-based
MCF7 [4] = experiment: Cytotoxicity against human MCF7 cells by MTT assay; type: functional, cell-based
LNCaP = experiment: Cytotoxicity against human LNCaP cells; type: functional, cell-based
TERT-RPE1 = experiment: Cytotoxicity against human TERT-RPE1 cells; type: functional, cell-based; details: RPE-1
Col2 = experiment: Cytotoxicity against human Col2 cells; type: functional, cell-based
HUVEC = experiment: Cytotoxicity against human HUVEC cells; type: functional, cell-based
[5] = Cytotoxicity against human Lu1 cells; type: functional, cell-based
A549 [6] = experiment: Cytotoxicity against human A549 cells measured after 24 hrs by MTT assay; type: functional, cell-based; details: A549, 24 h
COLO 205 = experiment: Cytotoxicity against human COLO 205 cells measured after 24 hrs by MTT assay; type: functional, cell-based; details: COLO 205, 24 h
MCF7 [7] = experiment: Cytotoxicity against human MCF7 cells measured after 24 hrs by MTT assay; type: functional, cell-based; details: MCF7, 24 h
A2780 = experiment: Cytotoxicity against human A2780 cells measured after 24 hrs by MTT assay; type: functional, cell-based; details: A2780, 24 h
HT-1080 = experiment: Cytotoxicity against human HT-1080 cells; type: functional, cell-based
HepG2 = experiment: Cytotoxicity against human HepG2 cells; type: functional, cell-based; details: read-out: TC50 (the source's name)
SMMC-7721 [8] = experiment: Cytotoxicity against human SMMC-7721 cells measured after 72 hrs by MTT assay; type: functional, cell-based; details: SMMC-7721, 72 h
Bel-7402 = experiment: Cytotoxicity against human Bel-7402 cells measured after 72 hrs by MTT assay; type: functional, cell-based; details: Bel-7402, 72 h
Huh-7 = experiment: Cytotoxicity against human Huh-7 cells measured after 72 hrs by MTT assay; type: functional, cell-based; details: Huh-7, 72 h
Bel7402/5-FU = experiment: Cytotoxicity against human BEL-7402/5-FU cells measured after 72 hrs by MTT assay; type: functional, cell-based
HCT-116 [9] = experiment: Cytotoxicity against human HCT-116 cells measured after 72 hrs by MTT assay; type: functional, cell-based; details: HCT-116, 72 h
OVCAR-3 [10] = experiment: Cytotoxicity against human OVCAR-3 cells by MTT assay; type: functional, cell-based
HCT-116 [11] = experiment: Cytotoxicity against human HCT-116 cells by MTT assay; type: functional, cell-based
KB = experiment: Cytotoxicity against human KB cells assessed as inhibition of growth measured after 1 day by hemacytometer; type: functional; details: 24 h, read-out: ED50 (the source's name)
OVCAR-3 [12] = experiment: Cytotoxicity against human OVCAR-3 cells; type: functional, cell-based
MCF7 [13] = experiment: Cytotoxicity against human MCF7 cells; type: functional, cell-based
A549 [14] = experiment: Cytotoxicity against human A549 cells; type: functional, cell-based
NCI-H187 = experiment: Cytotoxicity against human NCI-H187 cells; type: functional, cell-based

IC50 [1]: 13400 nM
IC50 (DNA topoisomerase 1): 5800 nM
Structure (SMILES): O=C(NNC(=S)Nc1ccc(Br)cc1)c1cc2c([nH]c3ccccc32)c(-c2cccc(O)c2)n1

Structure (SMILES): O=C(c1cc2c([nH]c3ccccc32)c(-c2ccccc2)n1)N1CCN(S(=O)(=O)c2ccc(Cl)cc2)CC1
IC50 (MG-63): 2800 nM

Structure (SMILES): Cc1ccccc1Cn1c2ccccc2c2cc(C(=O)OCCCCCOC(=O)c3cc4c5ccccc5n(Cc5ccccc5C)c4cn3)ncc21
IC50 (A549 [2]): 6930 nM
IC50 (SGC-7901): 6930 nM
IC50 (SMMC-7721 [3]): 6930 nM
IC50 (HeLa): 6930 nM

Structure (SMILES): COc1ccc2c3ccnc(C)c3n(CC3CC(c4ccccc4)=NO3)c2c1 (stereo not drawn)
IC50 (MCF7 [4]): 800 nM

Structure (SMILES): COc1cc2c3ccccc3n3c(=O)ccc(n1)c23
IC50 (LNCaP): 503 nM
IC50 (TERT-RPE1): 503 nM
IC50 (Col2): 503 nM
IC50 (HUVEC): 503 nM
IC50 [5]: 503 nM

Structure (SMILES): O=C(c1cc2c([nH]c3ccccc32)c(-c2ccccc2)n1)N1CCN(S(=O)(=O)c2ccccc2)CC1
IC50 (MG-63): 590 nM

Structure (SMILES): COc1cc2nc(-c3nc(-c4nccc5c4[nH]c4ccccc45)cs3)[nH]c2cc1OC
IC50 (A549 [6]): 720 nM
IC50 (COLO 205): 340 nM
IC50 (MCF7 [7]): 92 nM
IC50 (A2780): 1230 nM

Structure (SMILES): COc1c(O)ccc2c1c1ccnc3ccc(=O)n2c31
IC50 (HT-1080): 7200 nM

Structure (SMILES): O=C(O)[C@@H](O)Cc1nccc2c1[nH]c1ccccc12
CC50 (HepG2): > 50000 nM

Structure (SMILES): CN(C)c1ccc(-c2nc(C(=O)NCc3ccc(/C=C/C(=O)NO)cc3)cc3c2[nH]c2ccccc23)cc1
IC50 (SMMC-7721 [8]): 1840 nM
IC50 (Bel-7402): 1840 nM
IC50 (Huh-7): 1840 nM
IC50 (Bel7402/5-FU): 1840 nM
IC50 (HCT-116 [9]): 1840 nM

Structure (SMILES): COc1ccc2c3ccnc(C)c3n(CC(=O)N/N=C/c3ccc(C(C)(C)C)cc3)c2c1
IC50 (OVCAR-3 [10]): 2500 nM
IC50 (MCF7 [4]): 4000 nM
IC50 (HCT-116 [11]): 5000 nM

IC50 [1]: 8730 nM
IC50 (DNA topoisomerase 1): 7800 nM
Structure (SMILES): CSc1nnc(-c2cc3c([nH]c4ccccc43)c(-c3cccc(O)c3)n2)o1

Structure (SMILES): COc1cccc2c1c1c(O)cnc3ccc(=O)n2c31
EC50 (KB): 2 µg/mL (≈ 7.51 µM)

Structure (SMILES): CNCC(O)c1ccc(O)c(C2(O)c3ccccc3-[n+]3ccc4c([nH]c5ccccc54)c32)c1 (stereo not drawn)
IC50 (OVCAR-3 [12]): 27 µg/mL
IC50 (MCF7 [13]): 27 µg/mL
IC50 (A549 [14]): 27 µg/mL

Structure (SMILES): COc1ccc2c3ccnc4c(OC)cc(=O)n(c2c1)c43
IC50 (HT-1080): 5000 nM

Structure (SMILES): COC(=O)c1cc2c([nH]c3ccccc32)c([C@H](C)O)n1
IC50 (NCI-H187): 75100 nM

Structure (SMILES): COc1cnc2ccc(=O)n3c4cccc(O)c4c1c23
EC50 (KB): 2 µg/mL (≈ 7.51 µM)

Structure (SMILES): O=C(O)[C@H](O)Cc1nccc2c1[nH]c1ccccc12
CC50 (HepG2): 39000 nM
